Legend:
[1] = system: Methylobacter capsulatus Y (NRRL B-11,201); assay: Oxidation of sec-alcohols to ketones by resting cell suspension; type: cell-based
Experimental: (§1) The pH of the nutrient medium was adjusted to 7.0 by the addition of acid or base and 50 ml. samples of the nutrient medium were charged into a plurality of 300 ml. shaker flasks. The shaker flasks were inoculated with an inoculating loop of cells from an agar plate containing homogeneous colonies of the microorganisms on the plate (the purity of the isolates was confirmed by microscopic examination). The isolates had been maintained on methanol (0.4% V/V) agar plates or on agar plates under an atmosphere of methane and air having a 1:1 V/V gas ratio which had been transferred every two weeks. For growth on methanol, the medium was supplemented with 0.4% methanol. For growth on methane, the gaseous phase of the inoculated flasks was replaced with a gas mixture comprised on methane and air having a ratio of 1:1 on a V/V basis. The inoculated flasks were sealed air-tight and were incubated on a rotary shaker of orbital radius 2.5 cm. at 250 rpm and at 30° C. for two days until turbidity in the medium had developed. The cells were harvested by centrifugation at 10,000×g. at 4° C. for 30 minutes. The cell pellet was washed twice with a 0.05 M phosphate buffer at a pH of 7.0 (containing 0.02 M MgCl2). The washed cells were then suspended in a 0.05 M phosphate buffer at pH 7.0.
(§2) A 0.5 ml. sample of each washed cell suspension (2 mg. cells) was put into 10 ml. vials at 4° C. which were sealed with a rubber cap. The gaseous phase of the vials was removed with vacuum and then was replaced with a gas mixture of the substrate reactant (i.e., alkane or secondary alcohol) and oxygen at a 1:1 V/V ratio. (In the case of a liquid substrate, i.e., secondary alcohol, 10 μl of the substrate was put in the 10 ml. vials). […] Samples of product (1-3 μl) were withdrawn periodically with a microsyringe and the products were analyzed by gas chromatography (ionization flame detector column).
(§3) The procedure in Example 1 was repeated wherein a plurality of the methane-utilizing methylotrophic microorganisms were each grown aerobically in a nutrient medium containing methane as the alcohol dehydrogenase enzyme inducer and as the major carbon and energy source for growth. The cells were harvested and washed as described in Example 1. The resting microbial cells of the induced methane-grown methane-utilizing methylotrophic microorganisms were then contacted with C3 -C6 secondary alcohols in a buffered solution by the procedure of Example 1.
(§4) In this example, the procedure in Example 1 was repeated except that a plurality of methane-utilizing methylotrophic microorganisms were each aerobically grown in a methanol-containing nutrient medium instead of a methane-containing medium. The nutrients in the medium were the same as indicated in Example 1 except that 0.4% V/V methanol was used as the alcohol dehydrogenase inducer and major source of carbon and energy for growth. Following growth, the cells were harvested and washed as described in Example 1. The resting cells of the induced methanol-grown methylotrophic microorganisms were then contacted with secondary alcohols in a buffered solution by the procedure described in Example 1.

[2] = system: Methylococcus capsulatus, Texas (ATCC 19069); assay: as above; type: cell-based
Experimental: as §1, §2, §3, §4

[3] = system: Methylocystis parvus OBBP (NRRL B-11,198); assay: as above; type: cell-based
Experimental: as §1, §2, §3, §4

[4] = system: Methylomonas methanica S1 (NRRL B-11,199); assay: as above; type: cell-based
Experimental: as §1, §2, §3, §4

[5] = system: cell extracts of Candida utilis ATCC 26,387; assay: NAD+-dependent oxidation of secondary alcohols by cell extracts of yeasts; type: biochemical; details: cell extracts, grown on methanol, NAD+; gas chromatography
[6] = system: secondary alcohol dehydrogenase (SADH); assay: Activity of purified secondary alcohol dehydrogenase (inhibition, substrate specificity, Km); type: biochemical, Pseudomonas sp. ATCC 21439
Experimental: Secondary alcohol dehydrogenase (SADH) from an obligate methanol utilizer, Pseudomonas sp. ATCC 21439 was purified as follows. […] 0.05 M sodium phosphate buffer, pH 7.0 with 0.5 mM dithiothretol (buffer A) and were disrupted sonically (5×1 min.). The crude extract was separated by centrifugation. The crude extract was heat-treated at 50° C. in a water bath for 10 minutes. The resulting precipitate was removed by centrifugation. To the supernatant solution, 25 ml of protamine sulfate solution (2% solution in 0.1 M Tris base) was added dropwise with continuous stirring. After standing for 30 minutes, the extract was centrifuged. The supernatant solution was fractionated with solid ammonium sulfate. The material precipitating between 30 and 60% saturation was collected and was dialized overnight against buffer A. The The dialized material was applied to a DEAE-cellulose column (3 cm by 35 cm) that had been equilibrated with buffer A. The secondary alcohol dehydrogenase activity was eluted in the void volume. This DEAE-cellulose eluate was concentrated by ammonium sulfate fractionation. Material precipitating between 30 and 50% ammonium sulfate saturation was collected by centrifugation and dialyzed overnight against A. This fraction was further washed and filtered through an Amicon unit with XM 50 membrane. The concentrated fraction (6 ml) inside the Amicon unit was applied to an Affi-Gel Blue column (0.8 cm×18 cm) which had been equilibrated with buffer A for affinity chromatography. The column was washed overnight with buffer A (0.18 ml./min.) and then was eluted with buffer A containing 5 mM NAD. Each 1 ml. fraction was collected.
The purified secondary alcohol dehydrogenase enzyme (SADH) may be used directly for converting C3 -C6 secondary alcohols to the corresponding methyl ketones by the procedures described above; however, a source of NAD^+ must be added to the reaction medium. One can determine the NAD-linked secondary alcohol dehydrogenase activity with a fluorescence spectrophotometer (Perkin Elmer, Model MPF 44A) by following the formation of reduced NAD (Ex 340 nm, Em 460 nm). The assay system (3 ml.) will typically contain: sodium phosphate buffer pH 7.0, 150 μmol; NAD 1.0 μmol; a given amount of enzyme preparation; and 20 μmol secondary alcohol. The reaction is started by the addition of secondary alcohol. One unit of SADH enzyme activity represents the reduction of one nmole NAD per minute.
The effect of metal-chelating agents and thioreagents on the activity of the purified SADH enzyme were studied. […] The possibility of ethanol or n-propanol as an inhibitor was studied.

[7] = system: Kloeckera sp. Strain A2 (NRRL Y-11,420); assay: Oxidation of sec-alcohols to ketones by cell suspensions of yeasts; type: cell-based
[8] = system: Candida utilis ATCC 26387; assay: as above; type: cell-based
Pichia sp. NRRL-Y-11328 = assay: as above; type: cell-based

Compound: CCCC(C)O (centres unmarked) [2-Pentanol, 2-pentanol]
- Conversion Rates, sec-alcohol to methyl ketone ([1]; cells grown on methanol): 0.60 μmoles/hr/mg protein
- Conversion Rates, sec-alcohol to methyl ketone ([1]; resting cells grown on methane): 0.5 μmoles/hr/mg protein
- Conversion Rates, sec-alcohol to methyl ketone ([2]; cells grown on methanol): 3.5 μmoles/hr/mg protein
- Conversion Rates, sec-alcohol to methyl ketone ([2]; resting cells grown on methane): 2.5 μmoles/hr/mg protein
- Conversion Rates, sec-alcohol to methyl ketone ([3]; cells grown on methanol): 0.82 μmoles/hr/mg protein
- Conversion Rates, sec-alcohol to methyl ketone ([3]; resting cells grown on methane): 0.80 μmoles/hr/mg protein
- Conversion Rates, sec-alcohol to methyl ketone ([4]; cells grown on methanol): 0.45 μmoles/hr/mg protein
- Conversion Rates, sec-alcohol to methyl ketone ([4]; resting cells grown on methane): 0.25 μmoles/hr/mg protein
- Conversion Rate, secondary alcohol to methylketone [5]: 0.82 μmoles/hr/mg Protein
- substrate specificity of purified SADH (in words) [6]: lower rate
- relative percent rate of oxidation ([6]; 2-butanol = 100%): 5%
- Conversion Rate, sec-alcohol to ketone ([7]; growth substrate Ethanol): 1.0 μmoles/hr/mg of protein
- Conversion Rate, sec-alcohol to ketone ([7]; growth substrate Methanol): 1.2 μmoles/hr/mg of protein
- Conversion Rate, sec-alcohol to ketone ([7]; growth substrate Methylamine): 1.0 μmoles/hr/mg of protein
- Conversion Rate, sec-alcohol to ketone ([7]; growth substrate Methylformate): 1.2 μmoles/hr/mg of protein
- Conversion Rate, sec-alcohol to ketone ([7]; growth substrate Propylamine): 0.92 μmoles/hr/mg of protein
- Conversion Rate, sec-alcohol to ketone ([8]; growth substrate Ethanol): 1.0 μmoles/hr/mg of protein
- Conversion Rate, sec-alcohol to ketone ([8]; growth substrate Methanol): 1.5 μmoles/hr/mg of protein
- Conversion Rate, sec-alcohol to ketone ([8]; growth substrate Methylamine): 1.2 μmoles/hr/mg of protein
- Conversion Rate, sec-alcohol to ketone ([8]; growth substrate Methylformate): 1.3 μmoles/hr/mg of protein
- Conversion Rate, sec-alcohol to ketone ([8]; growth substrate Propylamine): 0.9 μmoles/hr/mg of protein
- Conversion Rate, sec-alcohol to ketone (Pichia sp. NRRL-Y-11328; growth substrate Ethanol): 1.0 μmoles/hr/mg of protein
- Conversion Rate, sec-alcohol to ketone (Pichia sp. NRRL-Y-11328; growth substrate Methanol): 1.2 μmoles/hr/mg of protein
- Conversion Rate, sec-alcohol to ketone (Pichia sp. NRRL-Y-11328; growth substrate Methylamine): 0.72 μmoles/hr/mg of protein
- Conversion Rate, sec-alcohol to ketone (Pichia sp. NRRL-Y-11328; growth substrate Methylformate): 0.98 μmoles/hr/mg of protein
- Conversion Rate, sec-alcohol to ketone (Pichia sp. NRRL-Y-11328; growth substrate Propylamine): 0.60 μmoles/hr/mg of protein

Source: patent US4268630A, “Microbiological production of ketones from C3 -C6 alkanes” (priority 1979, dated 1981)
